For 9 compounds, GI50 and TGI results are on record in PubChem BioAssay (NCI).

Each structure is given as a SMILES string.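 Step 1: Grow cells in 96-well plates. Step 2: Expose to compound for 48 hours at 5 concentrations. Step 3: Interpolate endpoints linearly; if unreached, use highest concentration. GI50: concentration for 50% inhibition of growth. TGI marks complete inhibition of growth.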

What all share (experiment): growth of human tumour cells (NCI), 48 h
Experiment [1] relates to ACHN renal.
The subject of experiment [2] is COLO 205 colon.
In experiment [3] the test system is EKVX NSCLC.
Experiment [4] concerns HS 578T breast.
Experiment [5] has as its system NCI-H23 lung.
Experiment [6] relates to SK-OV-3 ovarian.
Experiment [7] concerns T-47D breast.
The subject of experiment [8] is TK-10 renal.
Experiment [9] has as its system UO-31 renal.
Experiment [10] has as its system CCRF-CEM leukemia.

On to `COc1ccc2c(c1)sc1nc(-c3ccccc3)c(-c3ccc(O)c(OC)c3)n12`, for which the GI50 in experiment [1] was 38.9 µM; in experiment [2] it was 5.3 µM; in experiment [3], 74.7 µM; in experiment [4], more than 100 µM; in experiment [5], 95.5 µM; in experiment [6], 19.6 µM. Moreover, the GI50 in [7] was 83.1 µM; in experiment [8], more than 100 µM; in [9], 81 µM. For the same compound, the TGI in experiment [1] is more than 100 µM; in experiment [2], 34.6 µM; in experiment [3], more than 100 µM; in experiment [4] it was more than 100 µM; in experiment [5] it was more than 100 µM; in experiment [6] it was more than 100 µM. The TGI in experiment [7], in experiment [8] and in experiment [9] was more than 100 µM each time.
`O=C1c2cc3c(cc2[C@@H]2[C@H]1c1ccc([N+](=O)[O-])cc1C(=O)N2CCCCl)OCO3`: the GI50 in experiment [1] is less than 0.01 µM; in [2], less than 0.0131 µM; in [3] it was less than 0.01 µM; in [4], 0.174 µM; in [5], less than 0.01 µM; in experiment [6], less than 0.027 µM. Further, the GI50 in experiment [7] is more than 100 µM; in experiment [8] it was 0.0868 µM; in experiment [9], less than 0.01 µM. Also, the TGI in experiment [1] is less than 0.01 µM; in experiment [2], more than 100 µM; in experiment [3], more than 100 µM; in experiment [4], 61.5 µM; in experiment [5], 0.0398 µM; in [7], more than 100 µM.
Turning to `O=C(O)C[O][Sb][O]CC(=O)O`, the GI50 in experiment [1], in [10], in experiment [3], in experiment [4], in [5] and in [7] was more than 100 µM throughout. The GI50 in [8] and in experiment [9] was more than 100 µM each time. Moreover, the TGI in experiment [1], in [10], in experiment [3], in experiment [4], in [5] and in experiment [7] was more than 100 µM throughout. In addition, the TGI in [8] and in [9] was more than 100 µM throughout.
Consider `C/C1=C\C/C=C(\C)[C@H]2CC(CC/C(C)=C/CC1)[C@@](C)(CO)O2`, for which the GI50 is more than 100 µM in [1]; 72.8 µM in experiment [10]; more than 100 µM in experiment [2]; more than 100 µM in experiment [3]; more than 100 µM in experiment [4]; more than 100 µM in experiment [5]. Also, the GI50 is more than 100 µM in [6], more than 100 µM in experiment [7] and 21.7 µM in experiment [9]. Also, the TGI in experiment [1], in experiment [10], in [2], in experiment [3], in [4] and in experiment [5] was more than 100 µM each time. Also, the TGI in experiment [6] was more than 100 µM; in [7], more than 100 µM; in experiment [9], 89.9 µM.
For the compound `CC(=O)OC1CCC2(C)C(CCC3C4CC=C(C(C)=O)C4(C)OC(=O)CC32)C1` (stereo not drawn), the GI50 in experiment [1] is 1.3 µM; in experiment [10], 1.3 µM; in experiment [2], 1.64 µM; in experiment [4], 3.79 µM; in experiment [5], 2.9 µM; in [6] it was 11.1 µM. Moreover, the values for the GI50 in experiment [7], in [8] and in experiment [9] were 1.64 µM, 2.05 µM and 2.05 µM, respectively. The TGI in experiment [1] was 2.61 µM; in experiment [10] it was 4.87 µM; in [2], 3.02 µM; in [4] it was 29.8 µM; in experiment [5], 10.6 µM; in [6], 23.1 µM. Besides, the TGI in experiment [7] came to 3.4 µM; in experiment [8], 4.77 µM; in experiment [9], 7.89 µM.
As to `C[C@]12CCC3c4ccc(O)cc4CCC3C1Cc1ccc(O)cc12` (stereo partly drawn), the GI50 in experiment [1] is 10.4 µM; in experiment [10] it was 4.14 µM; in experiment [2], 12.1 µM; in experiment [3] it was 6.24 µM; in experiment [4] it was 5.87 µM; in experiment [6], 14.3 µM. The GI50 was 13.1 µM in experiment [7], 13.6 µM in [8] and 11.8 µM in experiment [9]. The TGI came to 22.3 µM in [1]; 17.2 µM in experiment [10]; 26 µM in experiment [2]; 18.9 µM in [3]; 42.6 µM in [4]; 36.4 µM in experiment [6]. In addition, the TGI in experiment [7] amounted to 30.9 µM; in [8], 40.2 µM; in experiment [9], 28.7 µM.
Regarding `NC(CSc1nc2ccccn2c1[N+](=O)[O-])C(=O)O` (stereo not drawn), the TGI in [1], in [2], in [3], in experiment [4], in experiment [5] and in experiment [6] was more than 100 µM each time. The values for the TGI in experiment [7], in experiment [8] and in [9] were more than 100 µM, more than 100 µM and 8.54 µM, respectively.
As for `O=C(NNc1ccccc1)OCc1ccccc1`, the GI50 in experiment [1] is 6.9 µM; in experiment [10], 3.94 µM; in [2] it was 17 µM; in [4] it was 70.2 µM; in experiment [5], 69.5 µM; in experiment [6], more than 100 µM. The GI50 in experiment [7] is 9.86 µM; in experiment [8], 32.9 µM; in [9], 2.88 µM. Moreover, the TGI in experiment [1] was more than 100 µM; in [10], more than 100 µM; in experiment [2] it was 46.4 µM; in experiment [4], more than 100 µM; in [5] it was more than 100 µM; in experiment [6], more than 100 µM. Also, the TGI in experiment [7] was more than 100 µM; in experiment [8] it was more than 100 µM; in [9], 37 µM.
With `N#Cc1cccc(/C=C(/C(=O)c2ccccc2)c2ccccc2)c1`, the GI50 is 2.47 µM in experiment [1]; 2.56 µM in experiment [10]; 5.3 µM in [2]; 2.9 µM in experiment [4]; 3.52 µM in [5]; 5.53 µM in experiment [6]. The figures for the GI50 in experiment [7], in experiment [8] and in experiment [9] were 3.78 µM, 5.75 µM and 5.31 µM, respectively. Moreover, the TGI in [1] was determined as 5.76 µM; in experiment [10] it was 12.8 µM; in experiment [2] it was 20 µM; in experiment [4] it was 33.6 µM; in experiment [5], 17.1 µM; in experiment [6], 20.8 µM. Also, the TGI in [7] came out at 17.3 µM; in experiment [8], 19.9 µM; in experiment [9] it was 19 µM.
